Assay results: PMC7604311, “Caprine Bactenecins as Promising Tools for Developing New Antimicrobial and Antitumor Drugs” (Frontiers in Cellular and Infection Microbiology, 2020)
Values after ≈ are worked out from the molar mass of the structure shown. Ends that are not written are not given here. Peptide text beside a SMILES is read from it.

Key:
E. coli ML-35p = experiment: Broth microdilution assay (MIC); assay type: cell-based, Escherichia coli; details: 50% MH broth/50% 10 mM Na-P buffer pH 7.4 with 0.1% BSA, 1×10^6 CFU/ml, 20 h, median of 3–6 independent experiments in triplicate
Experimental: (§1) The minimal inhibitory concentrations (MIC) of peptides were determined using microdilution assay in Müller–Hinton (MH) broth in general accordance with the guidelines of the European Committee for Antimicrobial Susceptibility Testing. Test plates were additionally pretreated with 0.1% bovine serum albumin (BSA) in distilled H2O (incubated for 1 h at 37°C) to reduce possible non-specific binding of peptides to the plastic surface of the wells, as proposed for AMP activity measuring ([Tossi et al., 1997]; [Wiegand et al., 2008]). Two-fold serial dilutions of peptides starting with 2 × stock concentration were prepared in sterile 10 mM sodium phosphate (Na-P) buffer, pH 7.4, with 0.1% BSA. Thus, final solutions contained 50% of Na-P diluted peptide and 50% of MH broth with bacteria. Bacteria for testing were grown overnight, then transferred into a fresh portion of 2.1% MH medium and additionally incubated for 2–3 h to obtain bacterial culture in its mid-logarithmic growth phase, which was diluted down to the final concentration of 1 × 10^6 CFU/ml. Concentration of bacteria in growth medium was calculated based on its absorbance at 620 nm.
After 20 h of incubation of AMPs with bacteria MICs were determined as lowest concentrations of AMPs completely preventing the visible growth of bacteria. Tests were performed in 60-well Terasaki microplates (10 µl end volume, V-shaped bottom; Sarstedt, Germany); dilutions in each test were made in triplicate. Final MIC values were calculated as medians based on the results of 3–5 independent experiments.

[1] = system: Gram-positive and Gram-negative bacteria; experiment: Geometric mean of MICs (GMIC) over tested strains; assay type: cell-based; details: geometric mean of MICs against all tested bacteria
Experimental: as §1
After 20 h of incubation of AMPs with bacteria MICs were determined as lowest concentrations of AMPs completely preventing the visible growth of bacteria. […] Final MIC values were calculated as medians based on the results of 3–5 independent experiments.

MTT test = assay type: cell-based; details: human, serum-free RPMI-1640, overnight incubation, mean ± SD of three independent tests, read-out: IC50 of cytotoxic action toward human PBMC
Experimental: Cytotoxic activity of peptides toward various types of eukaryotic cells was assessed using the standard MTT [3-(4,5-Dimethylthiazol-2-yl)-2,5-diphenyltetrazolium bromide] test ([Mosmann, 1983]). Human peripheral blood mononuclear cells (PBMC) were isolated from the peripheral blood of healthy donors. Whole heparinized blood diluted 3-fold with sterile PBS was carefully layered upon the 5 ml of the sterile Ficoll-400 (Pharmacia, Sweden) with a density of 1.077 in a sterile 50 ml conical tube and then centrifuged at 600 g and 4°C for 40 min. The mononuclear “ring” remaining above the Ficoll was collected using a transfer pipette and placed in another tube. Cells were washed twice with sterile PBS, resuspended in RPMI-1640 culture medium and immediately used for the test. Tumor cell lines were purchased from Biolot (Saint Petersburg, Russia) and cultured at 37°C and 5% CO2 in RPMI-1640 medium (Biolot, Saint Petersburg, Russia) supplemented with 10% fetal bovine serum, glutamine, and penicillin-streptomycin combination. For the experiments, cells were washed from the medium they were growing in and resuspended in serum- and antibiotic-free RPMI-1640. Cells were added at not less than 2 × 10^4 per well in sterile flat bottom 96-well microplates containing serial dilutions of tested peptides in RPMI-1640. For the positive control (100% viable cells), RPMI-1640 medium was used instead of the peptide solution, whereas for the negative control (0% viable cells) medium replaced both peptide and cells. Test plates were incubated at 37°C and 5% CO2 overnight, after which MTT metabolic marker in PBS (5 mg/ml) was introduced into each well. After an additional 4 h incubation, the reaction was stopped by adding isopropanol supplemented with 0.04 M HCl, in which the formazan crystals (formed as a result of MTT reduction in presence of metabolically active cells) were dissolved, and OD at 540 nm was measured. Background absorbance at 690 nm was subtracted from the results to countervail any unspecific OD fluctuations. The % of surviving cells was found as:
(2) Survival(%)=(ODsample−OD0% viable)/(OD100% viable−OD0% viable)×100%,
(§2) where ODsample, OD0% viable, and OD100% viable are respectively values of the OD at 540 nm minus the OD at 690 nm for the test sample and negative or positive controls. IC50 toxicity values were determined by nonlinear regression analysis of the dose response curves using Sigma Plot 11 (Systat Software Inc., USA). The experiments were repeated three times, with 3 parallels of samples and 4–6 parallels of controls each time.

[2] = Standard acute toxicity test; assay type: in vivo; details: at the utilized doses (1 or 100 μg per animal); data not shown
U937 = experiment: MTT test; assay type: cell-based, human; details: serum-free RPMI-1640, overnight incubation, mean ± SD of three independent tests, read-out: IC50 of cytotoxic action toward U937
Experimental: Cytotoxic activity of peptides toward various types of eukaryotic cells was assessed using the standard MTT [3-(4,5-Dimethylthiazol-2-yl)-2,5-diphenyltetrazolium bromide] test ([Mosmann, 1983]). Human peripheral blood mononuclear cells (PBMC) were isolated from the peripheral blood of healthy donors. Whole heparinized blood diluted 3-fold with sterile PBS was carefully layered upon the 5 ml of the sterile Ficoll-400 (Pharmacia, Sweden) with a density of 1.077 in a sterile 50 ml conical tube and then centrifuged at 600 g and 4°C for 40 min. The mononuclear “ring” remaining above the Ficoll was collected using a transfer pipette and placed in another tube. Cells were washed twice with sterile PBS, resuspended in RPMI-1640 culture medium and immediately used for the test. Tumor cell lines were purchased from Biolot (Saint Petersburg, Russia) and cultured at 37°C and 5% CO2 in RPMI-1640 medium (Biolot, Saint Petersburg, Russia) supplemented with 10% fetal bovine serum, glutamine, and penicillin-streptomycin combination. For the experiments, cells were washed from the medium they were growing in and resuspended in serum- and antibiotic-free RPMI-1640. Cells were added at not less than 2 × 10^4 per well in sterile flat bottom 96-well microplates containing serial dilutions of tested peptides in RPMI-1640. […] After an additional 4 h incubation, the reaction was stopped by adding isopropanol supplemented with 0.04 M HCl, in which the formazan crystals (formed as a result of MTT reduction in presence of metabolically active cells) were dissolved, and OD at 540 nm was measured. Background absorbance at 690 nm was subtracted from the results to countervail any unspecific OD fluctuations. […]
as §2, with “The experiments were repeated three times, with 3 parallels of samples and 4–6 parallels of controls each time.” left out

Row | Compound | MIC (E. coli ML-35p) [µM] | GMIC total [1] [µM] | IC50 (MTT test) [µM] | Toxic action in acute toxicity test [2] | IC50 (U937) [µM]
1 | CC[C@H](C)[C@H](NC(=O)[C@H](CCCNC(=N)N)NC(=O)[C@@H](NC(=O)[C@H](Cc1ccccc1)NC(=O)[C@@H]1CCCN1C(=O)[C@@H]1CCCN1C(=O)[C@@H]1CCCN1C(=O)[C@H](Cc1c[nH]cn1)NC(=O)[C@@H](NC(=O)[C@H](CCCNC(=N)N)NC(=O)[C@H](CCCNC(=N)N)NC(=O)[C@H](Cc1ccccc1)NC(=O)[C@@H]1CCCN1C(=O)[C@H](CC(C)C)NC(=O)[C@H](CCCNC(=N)N)NC(=O)[C@H](Cc1ccccc1)NC(=O)[C@@H](N)CCCNC(=N)N)[C@@H](C)CC)C(C)C)C(=O)N[C@@H](Cc1c[nH]cn1)C(=O)N1CCC[C@H]1C(=O)N1CCC[C@H]1C(=O)N1CCC[C@H]1C(=O)N[C@@H](Cc1ccccc1)C(=O)N[C@@H](Cc1ccc(O)cc1)C(=O)N[C@@H](CCCNC(=N)N)C(=O)N[C@@H](CCCNC(=N)N)C(=O)N[C@@H](Cc1ccccc1)C(=O)N[C@@H](CC(C)C)C(=O)O [ChBac3.4-1-COOH (rec)] (H-RFRLPFRRIHPPPFVRIHPPPFYRRFL-OH; N-terminus assumed) | 4 (≈ 14.1 µg/mL) | 5.0 | 40.8 ± 9.1 | – | –
2 | RFRLPFRRIHPPPFVRIHPPPFYRRFL [ChBac3.4-1-COOH] | 2 to 4 | – | – | no visible signs of toxic action | –
3 | RFRLPFRRIHPPPFVRIHPPPFYRRFL-NH2 [ChBac3.4-1-NH2] | 4 | – | 12.1 ± 0.8 | – | –
4 | RFRLPFRRPPIRIH-NH2 [ChBac3.4(1-14)-NH2] | 8 | – | > 64 | – | > 64
5 | RFRLPFRRPPIRIHPPPFY-NH2 [ChBac3.4(1-19)-NH2] | 4 | – | > 64 | – | > 64
6 | RFRLPFRRPPIRIHPPPFYPPFRRFL [ChBac3.4-COOH] | 2 | – | 36.2 ± 6.9 | – | –
